pIC50: −log10 of the molar value. Like-named read-outs stand apart in the source and are kept apart here.
Assays:
[1] = molecular target: T1, PI 3-kinase alpha (Homo sapiens, UniProt P42336); assay: Kinase Glo Luminescent Kinase Assay (Kglo), assay A; assay type: biochemical; details: read-out: Assay A PI3Kα IC50
[2] = molecular target: T2, PI 3-kinase beta (Homo sapiens, UniProt P42338); assay: Kinase Glo Luminescent Kinase Assay (Kglo), assay B; assay type: biochemical; details: read-out: Assay B PI3Kβ IC50
Target sequence in this assay (P42338 whole entry): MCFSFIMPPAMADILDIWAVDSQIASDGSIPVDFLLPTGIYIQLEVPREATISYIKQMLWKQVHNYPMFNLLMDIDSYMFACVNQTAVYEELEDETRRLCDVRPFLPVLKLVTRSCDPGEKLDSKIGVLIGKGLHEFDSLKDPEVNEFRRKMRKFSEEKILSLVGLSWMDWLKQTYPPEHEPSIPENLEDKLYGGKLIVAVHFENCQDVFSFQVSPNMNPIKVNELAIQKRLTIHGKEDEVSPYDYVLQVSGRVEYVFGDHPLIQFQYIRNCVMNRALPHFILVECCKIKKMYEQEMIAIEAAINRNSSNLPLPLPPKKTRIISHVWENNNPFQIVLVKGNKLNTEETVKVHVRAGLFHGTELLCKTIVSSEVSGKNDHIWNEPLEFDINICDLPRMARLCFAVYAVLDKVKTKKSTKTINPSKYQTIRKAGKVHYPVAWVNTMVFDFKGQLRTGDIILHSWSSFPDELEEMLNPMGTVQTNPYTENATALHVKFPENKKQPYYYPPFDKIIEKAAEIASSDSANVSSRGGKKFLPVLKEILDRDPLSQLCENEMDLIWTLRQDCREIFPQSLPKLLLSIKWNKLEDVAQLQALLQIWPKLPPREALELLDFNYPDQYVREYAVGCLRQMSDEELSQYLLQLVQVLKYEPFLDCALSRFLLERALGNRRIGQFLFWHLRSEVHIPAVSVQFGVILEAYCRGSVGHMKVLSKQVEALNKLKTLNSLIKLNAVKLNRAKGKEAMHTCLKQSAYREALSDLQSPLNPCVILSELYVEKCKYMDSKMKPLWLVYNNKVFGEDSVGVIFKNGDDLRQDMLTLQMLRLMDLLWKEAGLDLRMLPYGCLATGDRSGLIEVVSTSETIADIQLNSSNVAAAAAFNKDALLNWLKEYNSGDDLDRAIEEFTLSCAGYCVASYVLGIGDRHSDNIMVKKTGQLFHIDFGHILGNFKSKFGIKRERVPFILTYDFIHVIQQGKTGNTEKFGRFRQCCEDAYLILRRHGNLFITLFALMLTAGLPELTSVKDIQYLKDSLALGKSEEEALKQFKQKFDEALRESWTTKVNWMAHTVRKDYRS
Target sequence in this assay (P27986 461-568 partner): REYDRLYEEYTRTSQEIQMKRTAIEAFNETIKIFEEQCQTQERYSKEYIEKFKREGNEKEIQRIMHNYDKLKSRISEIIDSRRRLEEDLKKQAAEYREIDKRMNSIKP

[3] = molecular target: Vps34 (Homo sapiens, UniProt Q8NEB9); assay: Kinase Glo Luminescent Kinase Assay (Kglo), assay C; assay type: biochemical; details: read-out: Assay C VPS34 IC50
Vps34, sequence (Q8NEB9 whole entry, species assumed): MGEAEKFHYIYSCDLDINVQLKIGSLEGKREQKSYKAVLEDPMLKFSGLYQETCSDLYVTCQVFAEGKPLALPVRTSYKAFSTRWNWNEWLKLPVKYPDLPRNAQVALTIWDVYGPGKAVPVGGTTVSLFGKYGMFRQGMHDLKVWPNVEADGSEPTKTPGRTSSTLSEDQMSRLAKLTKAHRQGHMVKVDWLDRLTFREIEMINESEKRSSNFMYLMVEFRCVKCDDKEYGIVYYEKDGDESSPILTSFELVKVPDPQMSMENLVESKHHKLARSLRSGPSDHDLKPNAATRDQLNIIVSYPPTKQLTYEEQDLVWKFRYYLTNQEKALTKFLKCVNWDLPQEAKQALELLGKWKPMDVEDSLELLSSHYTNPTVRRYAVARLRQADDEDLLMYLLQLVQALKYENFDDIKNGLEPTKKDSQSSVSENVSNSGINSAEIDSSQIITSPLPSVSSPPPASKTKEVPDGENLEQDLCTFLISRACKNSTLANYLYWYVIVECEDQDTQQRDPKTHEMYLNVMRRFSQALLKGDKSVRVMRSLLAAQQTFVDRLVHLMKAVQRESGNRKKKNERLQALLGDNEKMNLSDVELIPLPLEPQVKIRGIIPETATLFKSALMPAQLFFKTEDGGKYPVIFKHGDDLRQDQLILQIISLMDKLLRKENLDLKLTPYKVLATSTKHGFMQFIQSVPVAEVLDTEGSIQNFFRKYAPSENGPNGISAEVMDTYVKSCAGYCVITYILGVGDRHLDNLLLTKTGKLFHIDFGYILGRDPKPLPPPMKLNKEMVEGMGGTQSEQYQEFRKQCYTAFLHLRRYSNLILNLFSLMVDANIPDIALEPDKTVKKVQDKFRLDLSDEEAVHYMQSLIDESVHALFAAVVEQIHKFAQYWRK

[4] = molecular target: PI 4-kinase beta (Homo sapiens, UniProt Q9UBF8); assay: Kinase Glo Luminescent Kinase Assay (Kglo), assay D; assay type: biochemical; details: read-out: Assay D PI4Kβ IC50
PI 4-kinase beta, sequence (Q9UBF8 whole entry): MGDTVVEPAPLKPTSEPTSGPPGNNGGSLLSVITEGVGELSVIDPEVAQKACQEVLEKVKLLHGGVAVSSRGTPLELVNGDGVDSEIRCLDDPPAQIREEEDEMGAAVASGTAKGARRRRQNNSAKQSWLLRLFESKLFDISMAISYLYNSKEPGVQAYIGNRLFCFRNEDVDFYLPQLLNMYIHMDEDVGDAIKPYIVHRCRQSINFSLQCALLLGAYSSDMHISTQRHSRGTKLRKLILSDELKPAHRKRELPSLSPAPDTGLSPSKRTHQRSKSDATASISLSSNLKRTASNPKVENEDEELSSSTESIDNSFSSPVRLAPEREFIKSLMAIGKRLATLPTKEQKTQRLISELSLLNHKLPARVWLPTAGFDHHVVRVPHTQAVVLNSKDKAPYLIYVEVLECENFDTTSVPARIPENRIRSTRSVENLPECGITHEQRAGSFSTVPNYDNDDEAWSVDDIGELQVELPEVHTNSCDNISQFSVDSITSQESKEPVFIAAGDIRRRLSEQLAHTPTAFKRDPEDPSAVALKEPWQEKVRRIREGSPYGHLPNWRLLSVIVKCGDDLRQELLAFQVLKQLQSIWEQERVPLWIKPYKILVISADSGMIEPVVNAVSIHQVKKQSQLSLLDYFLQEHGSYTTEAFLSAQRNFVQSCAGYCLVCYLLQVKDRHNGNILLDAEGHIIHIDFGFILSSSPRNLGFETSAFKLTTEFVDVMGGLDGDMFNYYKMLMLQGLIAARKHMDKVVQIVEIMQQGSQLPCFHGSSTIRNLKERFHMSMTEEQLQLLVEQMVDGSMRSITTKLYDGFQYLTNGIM
Description: Kinase Glo Luminescent Kinase Assay (Kglo) for Pb 3-Kinase Alpha (A), Pb 3-Kinase Beta (B), Vps34 (C), Pb 4-Kinase Beta (D)
The Kinase Glo Luminescent Kinase Assay (Promega, Madison/Wis., USA) is a homogeneous HTS method of measuring kinase activity by quantifying the amount of ATP remaining in solution following a kinase reaction.
L-α-phosphatidylinositol (PI), provided as 10 mg/ml solution in methanol, was transferred into a glass tube and dried under a nitrogen beam. It was then resuspended in 3% OctylGlucoside (1-0-n-octyl-beta-D-glucopyranoside) by vortexing and stored at 4° C. 5 μL of a mix of PI/OctylGlucoside with the PI 3-kinase alpha and PI 3-kinase beta subtypes, or Vps34 or PI 4-kinase beta were added. Kinase reactions were started by the addition of 5 μl of an ATP-mix containing in a final volume 10 μL 10 mM TRIS-HCl pH 7.5, 3 mM MgCl2, 50 mM NaCl, 0.05% CHAPS, 1 mM DTT and 1 μM ATP at room temperature.
All fits were performed with the program XLfit4 (ID Business Solutions, Guildford, UK).

[5] = molecular target: PI 3-kinase gamma (Homo sapiens, UniProt P48736); assay: TR-FRET Adapta assay, assay E; assay type: biochemical; details: read-out: Assay E PI3Kγ IC50
[6] = molecular target: mTOR (Homo sapiens, UniProt P42345); assay: Lanthascreen kinase binding assay, assay G; details: read-out: Assay G mTOR IC50
Description: Lanthascreen™ Kinase Binding Assay for mTOR (G)
Binding of an inhibitor to the kinase competes for binding with the tracer, resulting in a loss of FRET.
50 nL of compound dilutions were dispensed onto white 384-well small volume polystyrene plate.

[7] = molecular target: T1, PI 3-kinase alpha; assay: Cellular assay H1, p-Akt (S473) in Rat-1 cells, Surefire format; assay type: cell-based; details: non-asterisked data: version H1 (Surefire format), Rat-1 cells; read-out: Assay H PI3Kα IC50
[8] = molecular target: T2, PI 3-kinase beta; assay: Cellular assay I1, p-Akt (S473) in Rat-1 cells, Surefire format; assay type: cell-based; details: non-asterisked data: version I1 (Surefire format), Rat-1 cells; read-out: Assay I PI3Kβ IC50
Target sequence in this assay (P42338 whole entry): as the sequence (P42338 whole entry) above
Target sequence in this assay (Q63787 whole entry partner): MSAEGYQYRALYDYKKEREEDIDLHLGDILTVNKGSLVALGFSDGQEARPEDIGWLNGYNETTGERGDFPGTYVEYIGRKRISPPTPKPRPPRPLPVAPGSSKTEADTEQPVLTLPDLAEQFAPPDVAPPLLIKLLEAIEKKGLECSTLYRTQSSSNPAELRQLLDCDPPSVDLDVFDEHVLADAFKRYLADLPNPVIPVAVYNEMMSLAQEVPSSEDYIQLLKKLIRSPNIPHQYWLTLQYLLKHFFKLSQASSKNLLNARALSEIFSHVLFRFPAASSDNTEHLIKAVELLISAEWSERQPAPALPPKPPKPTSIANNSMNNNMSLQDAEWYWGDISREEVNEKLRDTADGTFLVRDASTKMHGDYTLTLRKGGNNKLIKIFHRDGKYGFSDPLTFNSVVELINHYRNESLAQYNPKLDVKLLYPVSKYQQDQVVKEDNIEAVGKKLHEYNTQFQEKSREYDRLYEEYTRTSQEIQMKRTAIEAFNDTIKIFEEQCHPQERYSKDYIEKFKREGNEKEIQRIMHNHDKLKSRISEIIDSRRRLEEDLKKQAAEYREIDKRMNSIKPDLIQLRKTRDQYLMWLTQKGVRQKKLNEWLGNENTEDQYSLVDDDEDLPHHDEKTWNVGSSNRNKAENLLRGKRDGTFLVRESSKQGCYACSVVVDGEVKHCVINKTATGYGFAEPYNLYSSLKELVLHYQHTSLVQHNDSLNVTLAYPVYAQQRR

[9] = molecular target: T3, PI 3-kinase delta (Homo sapiens, UniProt O00329); assay: Cellular assay J1, p-Akt (S473) in Rat-1 cells, Surefire format; assay type: cell-based; details: non-asterisked data: version J1 (Surefire format), Rat-1 cells; read-out: Assay J PI3Kδ IC50
Target sequence in this assay (O00329 whole entry): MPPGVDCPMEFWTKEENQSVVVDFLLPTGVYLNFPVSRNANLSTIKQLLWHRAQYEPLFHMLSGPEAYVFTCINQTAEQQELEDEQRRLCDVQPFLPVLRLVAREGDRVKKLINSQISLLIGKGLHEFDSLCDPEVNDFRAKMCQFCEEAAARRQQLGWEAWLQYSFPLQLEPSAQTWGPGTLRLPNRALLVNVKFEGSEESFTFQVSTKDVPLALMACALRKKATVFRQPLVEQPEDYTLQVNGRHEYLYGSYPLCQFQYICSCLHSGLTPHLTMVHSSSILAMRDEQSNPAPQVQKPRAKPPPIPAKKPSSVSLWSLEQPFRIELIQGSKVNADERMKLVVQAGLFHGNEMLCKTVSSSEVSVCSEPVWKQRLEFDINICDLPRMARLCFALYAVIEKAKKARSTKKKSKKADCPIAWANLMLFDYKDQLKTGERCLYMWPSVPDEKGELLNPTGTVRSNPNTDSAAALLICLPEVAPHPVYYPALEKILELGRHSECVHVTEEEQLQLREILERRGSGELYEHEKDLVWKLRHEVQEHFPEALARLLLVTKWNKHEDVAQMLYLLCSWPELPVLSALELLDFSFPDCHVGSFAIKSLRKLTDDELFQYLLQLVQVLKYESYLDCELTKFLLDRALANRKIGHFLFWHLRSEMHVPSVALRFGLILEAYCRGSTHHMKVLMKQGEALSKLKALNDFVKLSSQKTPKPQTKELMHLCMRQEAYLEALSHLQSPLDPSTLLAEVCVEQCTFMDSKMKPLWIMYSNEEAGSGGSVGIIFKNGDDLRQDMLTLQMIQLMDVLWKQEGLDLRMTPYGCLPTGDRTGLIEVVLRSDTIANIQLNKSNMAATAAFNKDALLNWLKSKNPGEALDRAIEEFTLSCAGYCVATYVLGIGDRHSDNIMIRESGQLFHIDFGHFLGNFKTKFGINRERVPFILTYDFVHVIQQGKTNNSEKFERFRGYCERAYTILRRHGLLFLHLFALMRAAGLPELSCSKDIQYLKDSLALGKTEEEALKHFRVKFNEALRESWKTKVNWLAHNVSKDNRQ
Target sequence in this assay (Q63787 whole entry partner): as the sequence (Q63787 whole entry partner) above

[10] = test system: IL-8-induced neutrophil shape change in human whole blood; assay: Whole blood neutrophil shape change assay (L); assay type: cell-based; details: IL-8, human whole blood, read-out: Assay L WBSC IC50
[11] = molecular target: T3, PI 3-kinase delta; assay: TR-FRET Adapta assay, assay F; details: for pIC50: read-out: Assay F PI3Kδ IC50
Target sequence in this assay (O00329 whole entry): as the sequence (O00329 whole entry) above
Target sequence in this assay (P27986 461-568 partner): as the sequence (P27986 461-568 partner) above

[12] = Microsomal clearance assay (M); details: intrinsic clearance in rat liver microsomes
Description: The experiments were performed in 96-well glass plates at 37° C. on an automated Tecan EVO platform. Test compounds at a concentration of 10 mM in pure DMSO were diluted 1:1000 in water to 10 μM. […] Reactions were initiated by the addition of 150 μL of a cofactor solution containing 2 mM NADPH.

SMILES	pIC50 [1]	pIC50 [2]	pIC50 [3]	pIC50 [4]	pIC50 [5]	pIC50 [6]	pIC50 [7]	pIC50 [8]	pIC50 [9]	IC50 ([11]; Assay F PI3Kδ IC50 (μM)) [µM]	Assay M RLM CI(int) [12] [µL/min/mg]	pIC50 ([10]; Homo sapiens, Neutrophil)	pIC50 [11]	pIC50 [10]
Cc1ccc(S(=O)(=O)NC2CC3(CC(O)C3)C2)cc1-c1cnc(N)c(-n2cncn2)n1 (single isomer, unassigned) [Example 70b, (S)-3-(5-Amino-6-(1H-1,2,4-triazol-1-yl)pyrazin-2-yl)-N-(6-hydroxyspiro[3.3]heptan-2-yl)-4-methylbenzenesulfonamide or (R)-3-(5-Amino-6-(1H-1,2,4-triazol-1-yl)pyrazin-2-yl)-N-(6-hydroxyspiro[3.3]heptan-2-yl)-4-methylbenzenesulfonamide]	6.08	5.60	< 5.00	< 5.00	8.40	5.23	5.39	< 5.00	5.40	1.1	57			6.16
Cc1ccc(S(=O)(=O)NCC(C)(C)O)cc1-c1cnc(N)c(-c2cnn(C)c2)n1 [Example 46.2, 3-(5-Amino-6-(1-methyl-1H-pyrazol-4-yl)pyrazin-2-yl)-N-(2-hydroxy-2-methylpropyl)-4-methylbenzenesulfonamide]	6.32	5.70	< 5.00	5.21	7.27	5.01					49	6.22	6.14	
Cc1noc(-c2nc(-c3cc(S(=O)(=O)NCC(C)(C)CO)ccc3C)cnc2N)n1 [Example 92, 3-(5-Amino-6-(3-methyl-1,2,4-oxadiazol-5-yl)pyrazin-2-yl)-N-(3-hydroxy-2,2-dimethylpropyl)-4-methylbenzenesulfonamide]	5.85	5.09	< 5.04	< 5.04	7.14	< 5.04					64	5.94	6.16	
Cc1cc(-c2nc(-c3cc(S(=O)(=O)NCCC(C)(C)O)ccc3C)cnc2N)on1 [Example 89, 3-(5-Amino-6-(3-methylisoxazol-5-yl)pyrazin-2-yl)-N-(3-hydroxy-3-methylbutyl)-4-methylbenzenesulfonamide]	6.38	5.89	5.47	5.15		< 5.00					46	5.43	6.08	
Cc1ccc(S(=O)(=O)NC2CC3(CC(O)C3)C2)cc1-c1cnc(N)c(-c2cn(C)nc2C)n1 (single isomer, unassigned) [Example 9b, (R)-3-[5-Amino-6-(1,3-dimethyl-1H-pyrazol-4-yl)-pyrazin-2-yl]-N-(6-hydroxy-spiro[3.3]hept-2-yl)-4-methyl-benzenesulfonamide or (S)-3-[5-Amino-6-(1,3-dimethyl-1H-pyrazol-4-yl)-pyrazin-2-yl]-N-(6-hydroxy-spiro[3.3]hept-2-yl)-4-methyl-benzenesulfonamide]		5.92	< 5.00		7.92	< 5.00		< 5.00	5.12		27		6.62	6.47
Cc1nc(C)n(-c2nc(-c3cc(S(=O)(=O)NCC(C)(C)O)ccc3C)cnc2N)n1 [Example 49, 3-(5-Amino-6-(3,5-dimethyl-1H-1,2,4-triazol-1-yl)pyrazin-2-yl)-N-(2-hydroxy-2-methylpropyl)-4-methylbenzenesulfonamide]	6.21	5.28	< 5.00	< 5.00	7.31	< 5.00					20	6.07	5.77	
Cc1ccc(S(=O)(=O)N[C@H]2CC[C@H](O)CC2)cc1-c1cnc(N)c(-c2cncnc2)n1 [Example 59, Trans-3-(5-Amino-6-(pyrimidin-5-yl)pyrazin-2-yl)-N-(-4-hydroxycyclohexyl)-4-methylbenzenesulfonamide]	6.04	5.28	< 5.04	< 5.04	6.98	5.22	5.07		5.19			6.10	6.39	
Cc1ccc(S(=O)(=O)NCC2(O)CCOCC2)cc1-c1cnc(N)c(-n2cncn2)n1 [Example 32, 3-(5-Amino-6-[1,2,4]triazol-1-yl-pyrazin-2-yl)-N-(4-hydroxy-tetrahydropyran-4-ylmethyl)-4-methylbenzenesulfonamide]			< 5.00	5.39		< 5.00					28	6.18		
Cc1ccc(S(=O)(=O)NCC(C)(C)O)cc1-c1cnc(N)c(-n2cc(C)c(C)n2)n1 [Example 47, 3-(5-Amino-6-(3,4-dimethyl-1H-pyrazol-1-yl)pyrazin-2-yl)-N-(2-hydroxy-2-methylpropyl)-4-methyl benzenesulfonamide]	6.48	5.22	< 5.00	5.06	7.31	< 5.00					140	5.50	6.28	

Continued, in another order:

pIC50 [1]	pIC50 [2]	pIC50 [3]	pIC50 [4]	pIC50 [5]	pIC50 [6]	pIC50 [7]	pIC50 [8]	pIC50 [9]	IC50 ([11]; Assay F PI3Kδ IC50 (μM)) [µM]	Assay M RLM CI(int) [12] [µL/min/mg]	pIC50 ([10]; Homo sapiens, Neutrophil)	pIC50 [11]	SMILES	pIC50 [10]
5.54	5.26	< 5.00	5.60	5.68	5.05	< 5.00	< 5.00	5.44		62	4.07	5.33	CC(C)(O)CNS(=O)(=O)c1cccc(-c2cnc(N)c(-n3cncn3)n2)c1 [Example 123, 3-(5-Amino-6-(1H-1,2,4-triazol-1-yl)pyrazin-2-yl)-N-(2-hydroxy-2-methylpropyl)benzenesulfonamide]	
6.57	< 5.04	< 5.04	5.30	7.42	5.19					79	5.93	6.24	Cc1cc(-c2nc(-c3cc(S(=O)(=O)NCC4(O)CCC4)ccc3C)cnc2N)ccn1 [Example 129.5, 3-(5-amino-6-(2-methylpyridin-4-yl)pyrazin-2-yl)-N-((1-hydroxycyclobutyl)methyl)-4-methylbenzenesulfonamide]	
5.77	< 5.04	< 5.04	< 5.04	7.85	5.05	5.53	5.05	5.68			5.42	6.24	Cc1ccc(S(=O)(=O)NC[C@H]2C[C@@H](O)C2)cc1-c1cnc(N)c(-c2nc(C3CC3)no2)n1 [Example 94, 3-(5-Amino-6-(3-cyclopropyl-1,2,4-oxadiazol-5-yl)pyrazin-2-yl)-N-(((1s,3s)-3-hydroxycyclobutyl)methyl)-4-methylbenzenesulfonamide]	
6.55	5.37	< 5.04	5.15	7.66	5.21					130	5.62	5.92	Cc1cc(-c2nc(-c3cc(S(=O)(=O)NC4CC(F)(F)C4)ccc3C)cnc2N)ccn1 [Example 129.2, 3-(5-amino-6-(2-methylpyridin-4-yl)pyrazin-2-yl)-N-(3,3-difluorocyclobutyl)-4-methylbenzenesulfonamide]	
6.36	5.52	< 5.00	5.07	7.55		5.58	< 5.00	5.72		<3.4	6.03	6.16	Cc1ccc(S(=O)(=O)NCC(C)(C)O)cc1-c1cnc(N)c(-n2cnc(C3CC3)n2)n1 [Example 109, 3-(5-Amino-6-(3-cyclopropyl-1H-1,2,4-triazol-1-yl)pyrazin-2-yl)-N-(2-hydroxy-2-methylpropyl)-4-methyl benzenesulfonamide]	
		< 5.04	< 5.04		5.66	5.63	5.22	6.00		134	5.77		Cc1ccc(S(=O)(=O)NCCC(C)(C)O)cc1-c1cnc(N)c(-c2nc(C3CC3)no2)n1 [Example 143, 3-(5-Amino-6-(3-cyclopropyl-1,2,4-oxadiazol-5-yl)pyrazin-2-yl)-N-(3-hydroxy-3-methylbutyl)-4-methylbenzenesulfonamide]	
